The results in this text go back to US10308617B2, “Triazole benzamide derivatives and the compositions and methods of treatment regarding the same” (An2H Discovery Limited, priority 2016, dated 2019).

Where only a bound is given, the exact number is not on record here.

The nature of data set [1]: Microsomal Stability Assay, rat liver microsomes. The class given is in vitro ADME. The following applies: for half-life at 1 μM: rat, liver microsomes, pH 7.4, 1 μM compound, 1.0 mg/mL microsome, NADPH, read-out: RLM t1/2. On the procedure: (§1) Compounds were also tested for metabolic stability in both rat liver microsomes (RLM) and human liver microsomes (HLM) and their half-life calculated (See Table 5). The assay was performed as follows. The total volume for each incubation was 250 μL. A 100 μM DMSO solution of compound (diluted from 10 mM stock solution) was spiked into 50 mM KH2PO4 (pH 7.4) buffer containing liver microsome at a concentration of 1.0 mg/mL. The reaction was initiated by the addition of 50 μL of 1 mM NADPH. The final concentration of each compound was 1 μM (1% DMSO). The positive controls, phenacetin for CYP1A2, diclofenac for CYP2C9, omeprazole for CYP2C19, dextromethorphan for CYP2D6 and midazolam for CYP3A4 were added to a separate tube with the final substrate concentrations of 1 μM (1% DMSO) for evaluating the enzyme activities in the liver microsomes. At 0, 15, 30 and 60 min, an aliquot of 15 μL reaction mixtures were removed and 200 μL of methanol (with internal standard of 25 ng/mL propranolol) was added to quench the reaction. The resulting mixture was centrifuged and supernatant was used for LC-MS/MS analysis.
(§2) The signals for each compound, or the metabolites for the probe substrates and the internal standard were integrated and the peak area ratios to internal standard were generated. Percent parent remaining at a specified timepoint was calculated based on the peak area ratios at time 0 (as 100%) for in vitro metabolic stability studies in liver microsome and hepatocyte. The observed rate constant (kobs) for the metabolism of substrates was calculated by plotting the natural log of percentage substrate remaining versus time of incubation with the slope being kobs. The half-life (T1/2) was calculated according to the following equation: T1/2=0.693/kobs

In the next data set the test system is H1703 (Lung). Put plainly: Cancer Cell Proliferation Assay (acid phosphatase, 72 hrs). The format is cell-based. Conditions: Homo sapiens, NCI-H1703, read-out: IC50 on cancer cell line proliferation, H1703. How it is done: (§3) Measurement of the inhibitive effect of compounds on cancer cell proliferation was performed. Various cell lines were tested, including HCT-116 (colon); A549 (lung); TOV-21G (ovarian); Calu-6 (lung); H1703 (Lung); LS-174T (colon); and SKOV3 (ovarian). The assays were performed under the following conditions: Cells are harvested at a concentration of 4×10^4 cells/ml in media. Volumes of 100 μl/well of these cell suspensions were added to a 96 well plate using a multichannel pipette. Plates were gently agitated to ensure an even dispersion of cells over a given plate. Cells were then incubated at 37° C., 5% CO^2 overnight. Following this, 100 μl of compound at varying concentrations was added to wells in triplicate. Control wells are those with 100 μl media containing 0.33% DMSO added to cell suspension (this is the equivalent volume of DMSO found in the highest concentration of drug). Plates were then gently agitated, as above, and incubated at 37° C., 5% CO2 for 72 hrs (control wells have reached 80-90% confluency). Assessment of cell proliferation in the presence of the compound was determined by the acid phosphatase assay.
(§4) Following the incubation period of 72 hrs, media was removed from the plates. Each well on the plate was washed twice with 100 μl PBS. This was then removed and 100 μl of freshly prepared phosphatase substrate (10 mM p-nitrophenol phosphate in 0.1M sodium acetate, 0.1% triton X-100, pH 5.5) was added to each well. The plates were then incubated in the dark at 37° C. for 2 hours. Colour development was monitored during this time. The enzymatic reaction was stopped by the addition of 50 μl of 1N NaOH. The plate was read in a dual beam plate reader at 405 nm with a reference wavelength of 620 nm. The absorbance reading of the latter is subtracted from the former, and the effect of the drug on cell proliferation was then measured as a percentage against the control cells (DMSO), which is taken as 0% inhibition. […] FIG. 14 A-K also show the % inhibition curves of various compounds on these cancer cell lines with the 72 hrs proliferation assay.

Another data set has as its system SKOV3 (ovarian). The description is as above. The format is cell-based. Conditions: Homo sapiens, SK-OV-3, read-out: IC50 on cancer cell line proliferation, SKOV3. On the procedure: as §3, §4
The next data set concerns A549 (lung). The data set is described as above. The class given is cell-based. The following applies: Homo sapiens, read-out: IC50 on cancer cell line proliferation, A549. On the procedure:
as §3, §4

Another data set has as its system Calu-6 (lung). The description is as above. The format is cell-based. Conditions: Homo sapiens, read-out: IC50 on cancer cell line proliferation, Calu6. How it is done:
as §3, §4

The next data set has as its system LS-174T (colon). Described as above. The class given is cell-based. The following applies: Homo sapiens, LS174T, read-out: IC50 on cancer cell line proliferation, LS-174T. How it is done: as §3, §4
The subject of another data set is TOV-21G (ovarian). The description is as above. The format is cell-based. Conditions: Homo sapiens, TOV21G, read-out: IC50 on cancer cell line proliferation, TOV-21G. How it is done: as §3, §4
Another data set deals with HCT-116 (colon). The data set is described as above. Conditions: Homo sapiens, read-out: IC50 on cancer cell line proliferation, HCT-116. The format is cell-based. How it is done: as §3, §4
The nature of data set [2]: Microsomal Stability Assay, human liver microsomes. The format is in vitro ADME. Conditions: pH 7.4, 1 μM compound, 1.0 mg/mL microsome, NADPH, read-out: HLM t1/2. On the procedure:
as §1, §2

On to `O=C(Nc1nc(NC(=O)c2cccs2)nn1-c1ccccc1)c1ccccc1` [Compound G2], for which, in data set [1], the half-life at 1 μM was 39 min.

On to `O=C(Nc1nc(NC(=O)c2ccco2)n(-c2ccccc2)n1)c1ccccc1` [Compound W1], for which, in data set [1], the half-life at 1 μM was determined as 110 min.

Turning to `Cc1ccccc1C(=O)Nc1nc(-c2ccccn2)nn1-c1ccc(OC(F)(F)F)cc1` [Compound H3], in data set [1], the half-life at 1 μM is 16 min. The IC50 with H1703 (Lung) stood at 3.04 µM; in the data set with SKOV3 (ovarian) it was 0.737 µM; in the data set with A549 (lung), 0.823 µM; in the data set on Calu-6 (lung) it was 2.41 µM; in the data set on LS-174T (colon) it was 0.497 µM; in the data set on TOV-21G (ovarian), 0.751 µM. Moreover, the IC50 in the data set with HCT-116 (colon) is 0.485 µM.

On to `O=C(/C=C/c1ccccc1)Nc1nc(NC(=O)c2ccccc2)nn1-c1ccccn1` [Compound U1], for which the half-life at 1 μM amounted to 10.5 min in [1] and 6.9 min in [2].

In the case of `O=C(Nc1nc(NC(=O)c2ccccc2)n(-c2ccc(OC(F)(F)F)cc2)n1)c1ccccc1` [Compound Z1], in data set [1], the half-life at 1 μM came out at 19 min. Moreover, the IC50 in the data set with H1703 (Lung) came out at 0.481 µM; in the data set with SKOV3 (ovarian), 0.606 µM; in the data set with A549 (lung) it was 0.253 µM; in the data set with Calu-6 (lung), 1.06 µM; in the data set on LS-174T (colon), 0.391 µM; in the data set on TOV-21G (ovarian), 0.21 µM. Moreover, the IC50 in the data set on HCT-116 (colon) amounted to 0.132 µM.

Regarding `O=C(Nc1nc(-c2ccccn2)nn1-c1ccccc1)c1ccccc1` [Compound Y1, N-(1-phenyl-3-(pyridin-2-yl)-1H-1,2,4-triazol-5-yl)benzamide], the half-life at 1 μM in data set [1] is less than 1 min. Also, the IC50 stood at 4.7 µM in the data set with H1703 (Lung); 1.18 µM in the data set with SKOV3 (ovarian); 0.893 µM in the data set with A549 (lung); 3.34 µM in the data set on Calu-6 (lung); 0.938 µM in the data set on LS-174T (colon); 0.495 µM in the data set with TOV-21G (ovarian). In the data set on HCT-116 (colon), the IC50 came to 0.351 µM.

Consider `O=C(Nc1nc(NC(=O)c2ccccc2)n(-c2ccccc2)n1)c1ccccc1` [Compound A, N,N′-(1-phenyl-1H-1,2,4-triazole-3,5-diyl)dibenzamide], for which the half-life at 1 μM is 20.6 min in [1] and 151 min in [2].

With `Cc1ccccc1C(=O)Nc1nc(-c2ncccc2C)nn1-c1ccccc1` [Compound S3, 2-methyl-N-(3-(3-methylpyridin-2-yl)-1-phenyl-1H-1,2,4-triazol-5-yl)benzamide], the IC50 in the data set on H1703 (Lung) was found to be 2.71 µM; in the data set with SKOV3 (ovarian), 0.65 µM; in the data set on A549 (lung), 0.878 µM; in the data set with Calu-6 (lung), 2.36 µM; with LS-174T (colon), 0.522 µM; in the data set with TOV-21G (ovarian) it was 0.566 µM. Besides, in the data set on HCT-116 (colon), the IC50 was 0.482 µM.

As to `Cc1ccccc1C(=O)Nc1nc(NC(=O)c2cccs2)nn1-c1ccccc1` [Compound K2], in data set [1], the half-life at 1 μM was determined as 29 min.

On to `O=C(Nc1nc(NC(=O)c2ccccc2)n(-c2ccc3c(c2)OCCO3)n1)c1ccccc1` [Compound E2], for which the half-life at 1 μM in data set [1] was determined as 3 min.

Take `Cc1ccccc1C(=O)Nc1nc(NC(=O)c2ccccc2)nn1-c1ccccc1` [Compound K, N-(5-benzamido-2-phenyl-1,2,4-triazol-3-yl)-2-methyl-benzamide]: the IC50 in the data set with H1703 (Lung) is 3.46 µM; in the data set with SKOV3 (ovarian), 3.14 µM; with A549 (lung) it was 2.53 µM; in the data set with LS-174T (colon), 3.11 µM; in the data set with TOV-21G (ovarian), 1.35 µM; in the data set on HCT-116 (colon), 1.92 µM.

On to `c1ccc(-n2nc(-c3ccccn3)nc2Nc2ncnc3ccccc23)cc1` [Compound U2], for which the half-life at 1 μM in data set [1] is 126 min.

As for `O=C(Nc1nc(Nc2ncnc3ccccc23)n(-c2ccccc2)n1)c1ccco1` [Z], in [1], the half-life at 1 μM amounted to 45 min.

For the compound `Cc1ccccc1C(=O)Nc1nc(NC(=O)c2ccccc2C)n(-c2ccc(Cl)cc2)n1` [Compound Q3], the half-life at 1 μM in data set [1] came to 133 min. Moreover, the IC50 in the data set with H1703 (Lung) amounted to 1.54 µM; with SKOV3 (ovarian), 2.06 µM; with A549 (lung), 0.613 µM; in the data set on Calu-6 (lung) it was 0.194 µM; with LS-174T (colon), 1.73 µM; with TOV-21G (ovarian), 0.688 µM. The IC50 in the data set with HCT-116 (colon) is 0.294 µM.

With `Cc1ccccc1C(=O)Nc1nc(Nc2ncnc3ccccc23)n(-c2ccccc2)n1` [Compound R2], the half-life at 1 μM in data set [1] came to 77 min.

In the case of `O=C(Nc1nc(NC(=O)c2ccc3ccccc3n2)n(-c2ccccc2)n1)c1ccccc1` [Compound B2], in data set [1], the half-life at 1 μM was found to be 2 min.

Regarding `Cc1ccccc1C(=O)Nc1nc(NC(=O)c2ccccc2C)n(-c2ccccc2)n1` [Compound F, 2-methyl-N-[5-[(2-methylbenzoyl)amino]-1-phenyl-1,2,4-triazol-3-yl]benzamide], the “In vitro RLM (min)” value in data set [1] (as repeated in the PK tables) is reported as “Stable”. For the same compound, the half-life at 1 μM is 630 min in [1] and 578 min in data set [2]. Besides, the IC50 in the data set on SKOV3 (ovarian) is 3.3 µM; in the data set with A549 (lung), 2.65 µM; in the data set on LS-174T (colon) it was 2.67 µM; in the data set with TOV-21G (ovarian), 2.22 µM; with HCT-116 (colon) it was 2.28 µM.

`Cc1ccccc1C(=O)Nc1nc(-c2ccccn2)nn1-c1ccccc1` [Compound Q2]: the half-life at 1 μM in data set [1] was 76 min. Moreover, the IC50 is approximately 2.53 µM in the data set on H1703 (Lung); 2.08 µM in the data set on SKOV3 (ovarian); 2.16 µM in the data set with A549 (lung); 2.29 µM in the data set with LS-174T (colon); 1.6 µM in the data set on TOV-21G (ovarian); 1.64 µM in the data set with HCT-116 (colon).

`O=C(Nc1nc(NC(=O)c2cc3ccccc3s2)n(-c2ccccc2)n1)c1ccccc1` [Compound A2]: in [1], the half-life at 1 μM is 36 min.

For the compound `Cc1ccccc1C(=O)Nc1nc(NC(=O)/C=C/c2ccccc2)n(-c2ccccc2)n1` [Compound C2], in data set [1], the half-life at 1 μM turned out to be 12 min.

`Cc1ccc(-c2nc(NC(=O)c3ccccc3C)n(-c3ccccc3)n2)nc1` [Compound R3, 2-methyl-N-(3-(5-methylpyridin-2-yl)-1-phenyl-1H-1,2,4-triazol-5-yl)benzamide]: the IC50 in the data set on H1703 (Lung) was 2.62 µM; with SKOV3 (ovarian) it was 2.71 µM; in the data set with A549 (lung), 1.98 µM; in the data set with Calu-6 (lung), 3.37 µM; in the data set with LS-174T (colon), 1.69 µM; in the data set with TOV-21G (ovarian), 1.19 µM. In addition, in the data set with HCT-116 (colon), the IC50 is 1.3 µM.

Turning to `O=C(Nc1nc(NC(=O)c2ccccc2)n(-c2ccc3ncccc3c2)n1)c1ccccc1` [Compound J2], the half-life at 1 μM in data set [1] amounted to 50 min.

Turning to `O=C(/C=C/c1ccccc1)Nc1nc(NC(=O)c2ccccc2)nn1-c1ccccc1` [Compound C, N-(5-cinnamamido-1-phenyl-1H-1,2,4-triazol-3-yl)benzamide], in data set [1] (as repeated in the PK tables), the “In vitro RLM” value was 14.1 min. Further, the half-life at 1 μM in data set [1] was 14.1 min; in [2], 77.9 min. Also, the IC50 in the data set with H1703 (Lung) came to 2.59 µM; in the data set on SKOV3 (ovarian) it was 3.16 µM; in the data set with A549 (lung), 2.26 µM; with LS-174T (colon), 2.2 µM; in the data set on TOV-21G (ovarian) it was 1.74 µM; in the data set on HCT-116 (colon) it was 1.67 µM.
